The values that follow come from patent publication EP2002836B1, “Cyclocondensed azaindoles active as kinase inhibitors” (Nerviano Medical Sciences S.r.l., priority 2007, dated 2008).

The target of experiment [1] is T1, AKT2 (Homo sapiens, UniProt P31751).
T1 construct: made in house
The experiment is described as follows: Biochemical assay for inhibitors of AKT2 kinase activity (33P trans-phosphorylation, Dowex resin). Conditions: 10 nM enzyme, 396 microM ATP, 8.5 microM peptide substrate; read-out: AKT2 IC50 (µM) Biochem assay. As to the method: (§1) The N-terminal GST fusion proteins used for the assays were prepared according to the methods described in Kumar, C. C. Biochem. Biophys. ACTA 2001, 1526, 257-268, and in Alessi, D. R.. Biochem. J. 1998 331, 299-308.
The in vitro kinase inhibition assay was conducted in the same way as described for AKT1. The kinase assay was run with a final enzyme concentration of 10 nM, in the presence of 396 microM ATP, 0.88 nM ^33P-γ-ATP and 8.5 microM substrate, a carboxy-terminally biotinylated peptide of the following sequence: ARKRERTYSFGHHA-biotin. The peptide was obtained in batches of >95% peptide purity from PRIMM labs Inc. (Boston MA, USA).

For experiment [2], the target named is AKT3 (Homo sapiens, UniProt Q9Y243). The experiment is described as follows: Biochemical assay for inhibitors of AKT3 kinase activity (33P trans-phosphorylation, Dowex resin). Conditions: 1 nM enzyme, 180 microM ATP, 28.5 microM peptide substrate; read-out: AKT3 IC50 (µM) Biochem assay. As to the method: as §1
The in vitro kinase inhibition assay was conducted in the same way as described for AKT1. The kinase assay was run with a final enzyme concentration of 1 nM, in the presence of 180 microM ATP, 0.88 nM ^33P-γ-ATP and 28.5 microM substrate, a carboxy-terminally biotinylated peptide of the following sequence: ARKRERTYSFGHHA-biotin. The peptide was obtained in batches of >95% peptide purity from PRIMM labs Inc. (Boston MA, USA).

Experiment [3] addresses AKT1 (Homo sapiens, UniProt P31749). The experiment is described as follows: Biochemical assay for inhibitors of AKT1 kinase activity (33P trans-phosphorylation, Dowex resin). Further details: made in house. Conditions: 5 nM enzyme, 132 microM ATP, 30 microM peptide substrate; read-out: AKT1 IC50 (µM) Biochem assay. The protocol:
as §1
The inhibitory activity of putative kinase inhibitors and the potency of selected compounds were determined using a trans-phosphorylation assay.
A specific substrate was incubated with the kinase in appropriate buffer conditions in the presence of ATP traced with ^33P-γ-ATP (gamma phosphate-labeled, Redivue™ Code Number AH9968, 1000-3000Ci/mmole, Amersham Biosciences Piscataway, NJ, USA), optimal cofactors and test compound.
At the end of the phosphorylation reaction, more than 98% cold and radioactive ATP were captured by an excess of Dowex ion exchange resin. The resin was allowed to settle to the bottom of reaction wells by gravity. Supernatant, containing substrate peptide, was subsequently withdrawn and transferred into a counting plate, and radioactivity (corresponding to phosphate incorporated into peptide) was evaluated by β-counting.
Kinase buffer was composed of 50 mM TRIS pH 7.5 containing10 mM MgCl2, 1 mM DTT, 3 microM Na3VO4, and 0.2 mg/mL BSA. 3X KB is buffer of the same composition and pH as KB, but with three times the concentration of each component. iii.Assay conditions (final concentrations) for AKT1.
The kinase assay was run with a final enzyme concentration of 5 nM, in the presence of 132 microM ATP, 0.88 nM ^33P-γ-ATP and 30 microM substrate, a carboxy-terminally biotinylated peptide of the following sequence: ARKRERTYSFGHHA-biotin. The peptide was obtained in batches of >95% peptide purity from PRIMM labs Inc. (Boston MA, USA).
The "test" mixture of 15 microL consisting of: • 1) 5 µl/well of 3x Enzyme mix (done in Kinase Buffer 3X), • 2) 5 µl/well of 3x substrate and ATP mix (done in ddH2O), together with ^33P-γ-ATP, • 3) 5 µl/well of 3x test compounds (diluted into ddH2O - 3% DMSO).
For % inhibition studies, dilution plates at 1 mM, 10 microM and 100 microM were prepared in 100% DMSO, then diluted to 3X final desired concentration (30, 3 and 0.3 microM) in ddH2O, 3% DMSO. A Multimek 96 (Beckman Coulter, Inc. 4300 N. Harbor Boulevard, P.O. Box 3100 Fullerton, CA 92834-3100 USA) was used for compound pipetting into test plates.
For IC50 determination, starting solutions of 30 microM compound in 3% DMSO were derived from 1 mM/100% DMSO stock solutions. These 30 microM starting solutions were used for generation of a further 9 serial 1/3 dilutions in ddH20, 3% DMSO, so as to generate a 10-point dilution curve at 3X the final assay concentration. Serial dilution was conducted in 96-well plates using a Biomek 2000 (Beckman Coulter) system. Dilution curves of 7 compounds/plate were prepared, and each plate also included a 10-point dilution curve of Staurosporine, as well as several negative and positive control wells.
384-well plates, V bottom (test plates) are prepared with 5 µl of the compound dilution (3X) and then placed onto a PlateTrak 12 robotized station (Perkin Elmer; the robot has one 384-tips pipetting head for starting the assay plus one 96-tips head for dispensing the resin) together with one reservoir for the Enzyme mix (3X) and one for the ATP mix (3X).
At the start of the run, the robot aspirates 5 µl of ATP mix, makes an air gap inside the tips (3 µl) and aspirates 5 µl of AKT mix. The following dispensation into the plates allows the kinase reaction to start upon 3 cycles of mixing, done by the robot itself.
The robot incubates the plates for 60 minutes at room temperature, and then stops the reaction by pipetting 70 µl of dowex resin suspension into the reaction mix. Three cycles of mixing are done immediately after the addition of the resin.
Another mixing cycle is performed after all the plates are stopped, this time using normal tips: the plates are then allowed to rest for about one hour in order to maximize ATP capture. […]

T1 sequence (P31751 whole entry, species assumed): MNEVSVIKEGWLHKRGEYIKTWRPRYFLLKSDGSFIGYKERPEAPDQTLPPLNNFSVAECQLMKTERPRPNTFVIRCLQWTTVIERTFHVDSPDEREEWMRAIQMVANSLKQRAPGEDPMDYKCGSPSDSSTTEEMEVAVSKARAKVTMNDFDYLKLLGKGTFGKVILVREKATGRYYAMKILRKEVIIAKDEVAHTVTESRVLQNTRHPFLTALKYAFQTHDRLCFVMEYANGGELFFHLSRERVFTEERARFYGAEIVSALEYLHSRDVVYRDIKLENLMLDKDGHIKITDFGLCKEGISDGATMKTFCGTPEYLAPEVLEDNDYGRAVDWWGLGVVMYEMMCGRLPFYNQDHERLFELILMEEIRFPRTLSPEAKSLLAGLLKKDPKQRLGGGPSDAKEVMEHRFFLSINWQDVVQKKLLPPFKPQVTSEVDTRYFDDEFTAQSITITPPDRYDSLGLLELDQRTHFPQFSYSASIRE
AKT3, sequence (Q9Y243 2-479): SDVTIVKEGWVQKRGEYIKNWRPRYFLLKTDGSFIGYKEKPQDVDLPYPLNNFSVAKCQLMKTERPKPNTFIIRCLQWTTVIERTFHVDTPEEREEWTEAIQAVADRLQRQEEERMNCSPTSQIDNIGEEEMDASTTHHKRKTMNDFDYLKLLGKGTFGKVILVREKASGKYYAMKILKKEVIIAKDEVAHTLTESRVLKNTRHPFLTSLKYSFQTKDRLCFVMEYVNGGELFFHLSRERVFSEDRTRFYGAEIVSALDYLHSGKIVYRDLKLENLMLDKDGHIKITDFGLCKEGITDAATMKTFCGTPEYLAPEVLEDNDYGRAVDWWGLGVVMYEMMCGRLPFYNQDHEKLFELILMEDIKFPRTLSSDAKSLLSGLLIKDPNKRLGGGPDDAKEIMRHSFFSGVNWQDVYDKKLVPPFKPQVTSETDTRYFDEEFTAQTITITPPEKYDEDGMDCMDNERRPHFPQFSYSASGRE
AKT1, sequence (P31749 whole entry): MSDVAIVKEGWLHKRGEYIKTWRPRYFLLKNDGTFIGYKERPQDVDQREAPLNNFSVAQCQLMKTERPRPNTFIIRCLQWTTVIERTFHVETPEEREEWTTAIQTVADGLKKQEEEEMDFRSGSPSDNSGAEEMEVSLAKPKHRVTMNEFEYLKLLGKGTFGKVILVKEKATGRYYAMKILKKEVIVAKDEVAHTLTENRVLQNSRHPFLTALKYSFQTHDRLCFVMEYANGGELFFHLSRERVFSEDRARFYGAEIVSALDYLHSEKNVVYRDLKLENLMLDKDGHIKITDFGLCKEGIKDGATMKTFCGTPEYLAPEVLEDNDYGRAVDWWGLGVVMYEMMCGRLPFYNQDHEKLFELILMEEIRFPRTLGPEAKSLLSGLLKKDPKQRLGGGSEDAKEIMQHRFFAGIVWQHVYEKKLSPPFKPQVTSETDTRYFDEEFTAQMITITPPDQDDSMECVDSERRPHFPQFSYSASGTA

Broadly, the IC50 is the midpoint of a concentration-inhibition curve. For `NC[C@H](Cc1ccccc1)NC(=O)c1cc2c3c(nccc3c1)NC2` [Cpd. 7, N-[(1S)-2-amino-1-benzylethyl]-1,2-dihydropyrrolo[4,3,2-ij]isoquinoline-4-carboxamide], the figures for the IC50 in experiment [1], in experiment [2] and in experiment [3] were 0.797 µM, 0.717 µM and 0.132 µM, respectively.

As to `O=C(N[C@H](CN1CCCC1)c1ccccc1)c1cc2c3c(nccc3c1)NC2` [Cpd. 8, N-[(1S)-1-phenyl-2-pyrrolidin-1-ylethyl]-1,2-dihydropyrrolo[4,3,2-ij]isoquinoline-4-carboxamide], the IC50 in experiment [1] was found to be 1.86 µM; in experiment [2] it was 1.06 µM; in experiment [3], 0.431 µM.
